This is an account of results in article PMC10687071 (The Journal of Biological Chemistry, 2023).

The experiment deals with T1, F87G mutant EAG1 channels (Mus musculus, UniProt Q60603, F87G).
T1 construct: expressed in transfected cells; host or cells: Xenopus laevis oocytes injected with cRNA
T1 sequence (Q60603 1-989 F87G): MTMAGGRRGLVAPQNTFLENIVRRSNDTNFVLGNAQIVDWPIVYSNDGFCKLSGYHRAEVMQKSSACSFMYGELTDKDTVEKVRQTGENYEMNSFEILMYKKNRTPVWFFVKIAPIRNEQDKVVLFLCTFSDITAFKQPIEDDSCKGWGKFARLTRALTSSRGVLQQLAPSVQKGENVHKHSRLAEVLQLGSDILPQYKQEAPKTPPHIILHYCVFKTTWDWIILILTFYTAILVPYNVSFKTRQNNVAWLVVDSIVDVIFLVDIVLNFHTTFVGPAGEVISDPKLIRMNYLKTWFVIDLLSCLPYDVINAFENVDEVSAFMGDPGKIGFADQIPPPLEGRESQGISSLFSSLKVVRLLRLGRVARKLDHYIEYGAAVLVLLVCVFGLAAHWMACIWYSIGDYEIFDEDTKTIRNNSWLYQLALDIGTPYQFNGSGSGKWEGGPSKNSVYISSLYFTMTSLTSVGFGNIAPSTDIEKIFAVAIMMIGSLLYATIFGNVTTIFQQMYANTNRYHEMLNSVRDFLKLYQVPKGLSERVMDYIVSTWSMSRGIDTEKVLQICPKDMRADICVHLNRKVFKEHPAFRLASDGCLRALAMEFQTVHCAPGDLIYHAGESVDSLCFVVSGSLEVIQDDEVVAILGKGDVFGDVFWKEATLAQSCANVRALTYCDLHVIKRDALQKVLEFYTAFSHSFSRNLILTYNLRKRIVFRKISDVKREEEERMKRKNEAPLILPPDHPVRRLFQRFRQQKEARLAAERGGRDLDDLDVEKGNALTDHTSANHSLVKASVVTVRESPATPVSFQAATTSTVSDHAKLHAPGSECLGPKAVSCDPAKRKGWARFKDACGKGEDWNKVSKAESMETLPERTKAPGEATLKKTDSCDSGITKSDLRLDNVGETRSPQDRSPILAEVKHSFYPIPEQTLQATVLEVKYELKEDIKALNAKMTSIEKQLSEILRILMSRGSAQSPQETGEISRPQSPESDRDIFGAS
The experiment is described as follows: TEVC recording, imipramine inhibition, F87G mutant. It is filed as cell-based. The conditions noted are these: F87G mutant EAG1 channel, +50 mV. From the text: The cDNA encoding wild-type (WT) mouse EAG1 channels in pGH19 vector was kindly provided by G. Robertson (University of Wisconsin-Madison, Madison, WI). The mutant ΔPAS EAG1 channel in pGH19 with the deletion of the PAS domain residues 2 to 130 was generated by Bio Basic Inc and verified by DNA sequencing (Genewiz). Mutant EAG1 channels with single amino acid substitutions were generated by Genewiz and verified by DNA sequencing. cRNA was transcribed using the T7 mMessage mMachine kit (Thermo Fisher Scientific). Defolliculated Xenopus laevis oocytes were purchased from Ecocyte Bioscience or Xenopus1 and injected with the cRNA using a Nanoinject II oocyte injector (Drummond).
For EAG1 current recordings, oocytes were placed into a handmade chamber containing a bath solution for the current recording. The currents were recorded using a TEVC technique with OC-725C amplifier (Warner Instruments) and pClamp11 software (Molecular Devices). The signals were digitized using Digidata 1550 (Molecular Devices). Patch pipettes were pulled from borosilicate glass and had resistances of 0.7 to 1.5 MΩ. The recording (bath) solution contained 96 mM NaCl, 4 mM KCl, 0.1 mM CaCl2, 1.8 mM MgCl2, and 5 mM HEPES, pH 7.5. The pipette solution contained 3 M KCl. […]

Structures are written as SMILES.

For the compound `CN(C)CCCN1c2ccccc2CCc2ccccc21` [imipramine], it took 42.8 ± 0.6 µM to reach half-maximal inhibition (IC50).

A word on the IC50: it is the concentration needed to halve the response being measured.
